Measurements: PubChem BioAssay (NCI)
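Values below derive from 48-hour exposures of cells grown in 96-well plates, with endpoints linearly interpolated between the two concentrations bracketing the appropriate inhibition level. GI50 is the concentration that inhibits growth by half. The concentration for full growth arrest is given as TGI.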

What was measured:
Assay in all cases: growth of human tumour cells (NCI), 48 h
HL-60(TB) leukemia = tested on: HL-60(TB) leukemia
A498 renal = tested on: A498 renal
MCF7 breast = tested on: MCF7 breast
UACC-62 melanoma = tested on: UACC-62 melanoma
NCI-H23 lung = tested on: NCI-H23 lung
T-47D breast = tested on: T-47D breast
NCI/ADR-RES ovarian = tested on: NCI/ADR-RES ovarian
PC-3 prostate = tested on: PC-3 prostate
MDA-MB-231 breast = tested on: MDA-MB-231 breast
KM12 colon = tested on: KM12 colon

O=S(=O)(NCCCNc1nccc(-c2c(-c3ccc(F)cc3)nc3sccn23)n1)c1ccc(F)cc1
GI50 (HL-60(TB) leukemia): 8.38 µM | TGI (HL-60(TB) leukemia): > 100 µM | GI50 (A498 renal): 2250 nM | TGI (A498 renal): 45.6 µM | GI50 (MCF7 breast): 3.24 µM | TGI (MCF7 breast): > 100 µM | GI50 (UACC-62 melanoma): 4.68 µM | TGI (UACC-62 melanoma): 50.7 µM | GI50 (NCI-H23 lung): 17.8 µM | TGI (NCI-H23 lung): > 100 µM | GI50 (T-47D breast): 2.28 µM | TGI (T-47D breast): 13.2 µM | GI50 (NCI/ADR-RES ovarian): 6.6 µM | TGI (NCI/ADR-RES ovarian): > 100 µM | GI50 (PC-3 prostate): 9.54 µM | TGI (PC-3 prostate): > 100 µM | GI50 (MDA-MB-231 breast): 14.2 µM | TGI (MDA-MB-231 breast): > 100 µM

Cc1cc2c(c(=O)o1)C1=S(SC(c3ccccc3)=C1)S2 (centres undefined)
TGI (KM12 colon): > 100 µM | TGI (A498 renal): 34 µM | TGI (MCF7 breast): > 100 µM | TGI (UACC-62 melanoma): > 100 µM | TGI (NCI-H23 lung): > 100 µM | TGI (T-47D breast): > 100 µM | TGI (NCI/ADR-RES ovarian): > 100 µM | TGI (PC-3 prostate): 65.1 µM | TGI (MDA-MB-231 breast): > 100 µM

C=CC(=O)N[C@@H](/C=C/C(=O)OCC)Cc1ccc(-c2cc(Cl)cc(Cl)c2)cc1
GI50 (KM12 colon): 16.6 µM | TGI (KM12 colon): 93.7 µM | GI50 (HL-60(TB) leukemia): 8.22 µM | TGI (HL-60(TB) leukemia): 60 µM | GI50 (MCF7 breast): 5.92 µM | TGI (MCF7 breast): 66.4 µM | GI50 (UACC-62 melanoma): 4.6 µM | TGI (UACC-62 melanoma): 25.2 µM | GI50 (NCI-H23 lung): 11.8 µM | TGI (NCI-H23 lung): > 100 µM | GI50 (T-47D breast): 3.35 µM | TGI (T-47D breast): 28 µM | GI50 (NCI/ADR-RES ovarian): 11.9 µM | TGI (NCI/ADR-RES ovarian): 73.3 µM | GI50 (MDA-MB-231 breast): 12.8 µM | TGI (MDA-MB-231 breast): 48.8 µM

[Cl][Cu][Cl]
GI50 (KM12 colon): > 10 µM | TGI (KM12 colon): > 10 µM | GI50 (HL-60(TB) leukemia): > 10 µM | TGI (HL-60(TB) leukemia): > 10 µM | GI50 (MCF7 breast): > 10 µM | TGI (MCF7 breast): > 10 µM | GI50 (UACC-62 melanoma): > 10 µM | TGI (UACC-62 melanoma): > 10 µM | GI50 (NCI-H23 lung): > 10 µM | TGI (NCI-H23 lung): > 10 µM | GI50 (T-47D breast): > 10 µM | TGI (T-47D breast): > 10 µM | GI50 (NCI/ADR-RES ovarian): > 10 µM | TGI (NCI/ADR-RES ovarian): > 10 µM | GI50 (PC-3 prostate): > 10 µM | TGI (PC-3 prostate): > 10 µM | GI50 (MDA-MB-231 breast): > 10 µM | TGI (MDA-MB-231 breast): > 10 µM

Clc1ccc([I+]c2ccc(Cl)cc2Cl)c(Cl)c1
GI50 (KM12 colon): 2.13 µM | TGI (KM12 colon): 4.47 µM | GI50 (HL-60(TB) leukemia): 2.09 µM | TGI (HL-60(TB) leukemia): 4.58 µM | GI50 (A498 renal): 1760 nM | TGI (A498 renal): 6.98 µM | GI50 (MCF7 breast): 1.87 µM | TGI (MCF7 breast): > 100 µM | GI50 (NCI-H23 lung): 2.13 µM | TGI (NCI-H23 lung): 4.83 µM | GI50 (NCI/ADR-RES ovarian): 9.47 µM | TGI (NCI/ADR-RES ovarian): 32 µM | GI50 (PC-3 prostate): 1.94 µM | TGI (PC-3 prostate): 4.72 µM | GI50 (MDA-MB-231 breast): 2.04 µM | TGI (MDA-MB-231 breast): 4.42 µM

c1ccc2c(CNCCN3CCNCC3)c3ccccc3c(CNCCN3CCNCC3)c2c1
GI50 (KM12 colon): 10.3 µM | TGI (KM12 colon): 26.8 µM | GI50 (A498 renal): 18300 nM | TGI (A498 renal): 60.7 µM | GI50 (MCF7 breast): 11.5 µM | TGI (MCF7 breast): 50.2 µM | GI50 (UACC-62 melanoma): 21.1 µM | TGI (UACC-62 melanoma): 44 µM | GI50 (NCI-H23 lung): 16 µM | TGI (NCI-H23 lung): 54.1 µM | GI50 (T-47D breast): 19.9 µM | TGI (T-47D breast): 81.9 µM | GI50 (NCI/ADR-RES ovarian): > 100 µM | TGI (NCI/ADR-RES ovarian): > 100 µM | GI50 (PC-3 prostate): 5.86 µM | TGI (PC-3 prostate): 20.3 µM | GI50 (MDA-MB-231 breast): 16 µM | TGI (MDA-MB-231 breast): 38.6 µM

Nc1nc(C(=O)O)c(N=Nc2ccccc2)c(=O)[nH]1
TGI (KM12 colon): > 100 µM | TGI (HL-60(TB) leukemia): > 100 µM | TGI (A498 renal): > 100 µM | TGI (MCF7 breast): > 100 µM | TGI (UACC-62 melanoma): > 100 µM | TGI (NCI-H23 lung): > 100 µM | TGI (NCI/ADR-RES ovarian): > 100 µM | TGI (PC-3 prostate): > 100 µM | TGI (MDA-MB-231 breast): > 100 µM
